From patent US11541132B2, “Radiolabeled compounds” (Hoffmann-La Roche Inc., priority 2017, dated 2023)

Assays:
[1] = target: T1, native aSyn aggregates in A30P transgenic mouse brain sections (Homo sapiens, UniProt P37840, A30P); assay: aSyn in vitro displacement assay ([3H]Example-3 autoradiography); type: binding, mutant human aSyn gene); conditions: 1 μM compound; 3 nM [3H]Example-3; A30P transgenic mouse brain sections; read-out: PCT_INHIB A30P @ 1 μM (% displacement of [3H]Example-3)
T1 construct: from tissue; host or cells: brain sections (midbrain and pons as ROI) of A30P transgenic mice, line B6.D2-Tg(Thy1-SNCA*30P)31Pjk

[2] = target: T2, native Aβ aggregates in human AD brain tissue sections (Homo sapiens, UniProt P05067); assay: Aβ in vitro displacement assay (selectivity counterscreen, [3H]Example 3 autoradiography); type: binding; conditions: 1 μM compound; 3 nM [3H]Example 3; human AD brain sections; read-out: sel. counterscreen PCT_INHIB AD @ 1 μM (% displacement of [3H]Example 3)
T2 construct: native Aβ aggregates in human AD brain tissue samples; from tissue; host or cells: human AD brain tissue sections
T2 sequence (P05067 672-713 limits assumed): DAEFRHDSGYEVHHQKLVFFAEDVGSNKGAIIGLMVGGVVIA

inhibition at 1 µM [1] [%] | inhibition at 1 µM [2] [%] | SMILES
95 | 99 | COc1ccc(C(=O)Nc2ccc(N3CCN(c4nccs4)CC3)cc2)c(F)c1 [Example 18, 2-Fluoro-4-methoxy-N-[4-[4-(1,3-thiazol-2-yl)piperazin-1-yl]phenyl]benzamide]
90 | 103 | CN(C)c1ccc(C(=O)Nc2ccc(N3CCN(c4nccs4)CC3)cc2)cc1 [Example 20, 4-(Dimethylamino)-N-[4-[4-(1,3-thiazol-2-yl)piperazin-1-yl]phenyl]benzamide]
85 | 91 | Cc1ccc(C(=O)Nc2ccc(N3CCN(c4nccs4)CC3)cc2)c(F)c1 [Example 21, 2-Fluoro-4-methyl-N-[4-[4-(1,3-thiazol-2-yl)piperazin-1-yl]phenyl]benzamide]
81 | 83 | COc1ccc(C(=O)Nc2ccc(N3CCN(c4ccccn4)CC3)cc2C)c(F)c1 [Example 29, 2-Fluoro-4-methoxy-N-(2-methyl-4-(4-(pyridin-2-yl)piperazin-1-yl)phenyl)benzamide]
91 | 96 | Cc1cccc(N2CCN(c3ccc(NC(=O)c4ccc(N(C)C)cc4)cc3)CC2)n1 [Example 30, 4-(Dimethylamino)-N-(4-(4-(6-methylpyridin-2-yl)piperazin-1-yl)phenyl)benzamide]
90 | 98 | CN(C)c1ccc(C(=O)Nc2ccc(N3CCN(c4ccccn4)CC3)nc2)cc1 [Example 31, 4-(Dimethylamino)-N-[6-[4-(2-pyridyl)piperazin-1-yl]-3-pyridyl]benzamide]
87 | 88 | O=C(Nc1ccc(N2CCN(c3ccccn3)CC2)nc1)c1ccc(N2CCOCC2)cc1 [Example 32, 4-Morpholino-N-[6-[4-(2-pyridyl)piperazin-1-yl]-3-pyridyl]benzamide]
85 | 90 | Cc1ccc(C(=O)Nc2ccc(N3CCN(c4ccccn4)CC3)nc2)nc1 [Example 33, 5-Methyl-N-[6-[4-(2-pyridyl)piperazin-1-yl]-3-pyridyl]pyridine-2-carboxamide]
84 | 99 | COc1ccc(C(=O)Nc2ccc(N3CCN(c4ccccn4)CC3)nc2)c(F)c1 [Example 34, 2-Fluoro-4-methoxy-N-[6-[4-(2-pyridyl)piperazin-1-yl]-3-pyridyl]benzamide]
86 | 91 | CN(C)c1ccc(C(=O)Nc2ccc(N3CCN(c4ccccn4)CC3)nn2)cc1 [Example 36, 4-(Dimethylamino)-N-[6-[4-(2-pyridyl)piperazin-1-yl]pyridazin-3-yl]benzamide]
94 | 97 | Cc1ccc(C(=O)Nc2ccc(N3CCN(c4cccnc4)CC3)cc2)cc1 [Example 37, 4-Methyl-N-(4-(4-(pyridin-3-yl)piperazin-1-yl)phenyl)benzamide]
96 | 93 | COc1ccc(C(=O)Nc2ccc(N3CCN(c4cccnc4)CC3)cc2)cc1 [Example 38, 4-Methoxy-N-(4-(4-(pyridin-3-yl)piperazin-1-yl)phenyl)benzamide]
87 | 69 | O=C(Nc1ccc(N2CCN(c3cccnc3)CC2)cc1)c1ccc(N2CCOCC2)cc1 [Example 39, 4-Morpholino-N-(4-(4-(pyridin-3-yl)piperazin-1-yl)phenyl)benzamide]
86 | 92 | COc1ccc(C(=O)Nc2ccc(N3CCN(c4ccccn4)CC3)nn2)c(F)c1 [Example 40, 2-Fluoro-4-methoxy-N-[6-[4-(2-pyridyl)piperazin-1-yl]pyridazin-3-yl]benzamide]
84 | 90 | COc1ccc(C(=O)Nc2ccc(N3CCN(c4ccncc4)CC3)cc2)cc1 [Example 41, 4-Methoxy-N-[4-[4-(4-pyridyl)piperazin-1-yl]phenyl]benzamide]
91 | 94 | CN1CCOc2cc(C(=O)Nc3ccc(N4CCN(c5ccccn5)CC4)cc3)ccc21 [Example 42, 4-Methyl-N-(4-(4-(pyridin-2-yl)piperazin-1-yl)phenyl)-3,4-dihydro-2H-benzo[b][1,4]oxazine-7-carboxamide]
84 | 99 | COc1ccc(C(=O)Nc2ccc(N3CCN(c4ccccn4)CC3)cn2)cc1 [Example 43, 4-Methoxy-N-(5-(4-(pyridin-2-yl)piperazin-1-yl)pyridin-2-yl)benzamide]
95 | 94 | COc1ccc(C(=O)Nc2ccc(N3CCN(c4ccccn4)CC3)cn2)c(F)c1 [Example 44, 2-Fluoro-4-methoxy-N-(5-(4-(pyridin-2-yl)piperazin-1-yl)pyridin-2-yl)benzamide]

inhibition at 1 µM [1] [%] | inhibition at 1 µM [2] [%] | SMILES
97 | 98 | Cc1ccc(C(=O)Nc2ccc(N3CCN(c4ccccn4)CC3)cn2)cc1 [Example 45, 4-Methyl-N-(5-(4-(pyridin-2-yl)piperazin-1-yl)pyridin-2-yl)benzamide]
94 | 96 | CN(C)c1ccc(C(=O)Nc2ccc(N3CCN(c4ccccn4)CC3)cn2)cc1 [Example 46, 4-(Dimethylamino)-N-(5-(4-(pyridin-2-yl)piperazin-1-yl)pyridin-2-yl)benzamide]
83 | 94 | O=C(Nc1ccc(N2CCN(c3ccccn3)CC2)cn1)c1ccccc1F [Example 47, 2-Fluoro-N-(5-(4-(pyridin-2-yl)piperazin-1-yl)pyridin-2-yl)benzamide]
97 | 93 | O=C(Nc1ccc(N2CCN(c3ccccn3)CC2)nn1)c1ccc(N2CCOCC2)cc1 [Example 48, 4-Morpholino-N-[6-[4-(2-pyridyl)piperazin-1-yl]pyridazin-3-yl]benzamide]
92 | 95 | COc1ccc(C(=O)Nc2ccc(N3CCN(c4ncccn4)CC3)cc2)cc1 [Example 49, 4-Methoxy-N-{4-[4-(pyrimidin-2-yl)piperazin-1-yl]phenyl}benzamide]
97 | 86 | COc1ccc(C(=O)Nc2ccc(N3CCN(c4ccc(C#N)cn4)CC3)cc2)cc1 [Example 50, N-(4-(4-(5-Cyanopyridin-2-yl)piperazin-1-yl)phenyl)-4-methoxybenzamide]
94 | 94 | O=C(Nc1ccc(N2CCN(c3ccccn3)CC2)cn1)c1ccc(N2CCOCC2)cc1 [Example 51, 4-Morpholino-N-(5-(4-(pyridin-2-yl)piperazin-1-yl)pyridin-2-yl)benzamide]
92 | 95 | Cc1ccc(C(=O)Nc2ccc(N3CCN(c4ccccn4)CC3)cn2)c(F)c1 [Example 52, 2-Fluoro-4-methyl-N-(5-(4-(pyridin-2-yl)piperazin-1-yl)pyridin-2-yl)benzamide]
82 | 86 | Cc1ccc(C(=O)Nc2ccc(N3CCN(c4ccccn4)CC3)cn2)nc1 [Example 53, 5-Methyl-N-(5-(4-(pyridin-2-yl)piperazin-1-yl)pyridin-2-yl)picolinamide]
82 | 90 | Cc1cccc(C(=O)Nc2ccc(N3CCN(c4ccccn4)CC3)cn2)c1 [Example 54, 3-Methyl-N-(5-(4-(pyridin-2-yl)piperazin-1-yl)pyridin-2-yl)benzamide]
81 | 95 | COc1ccc(C(=O)Nc2ccc(N3CCN(c4ncncn4)CC3)cc2)cc1 [Example 55, 4-Methoxy-N-{4-[4-(1,3,5-triazin-2-yl)piperazin-1-yl]phenyl}benzamide]
88 | 98 | COc1ccc(C(=O)Nc2ccc(N3CCN(c4ccncn4)CC3)cc2)cc1 [Example 56, 4-Methoxy-N-{4-[4-(pyrimidin-4-yl)piperazin-1-yl]phenyl}benzamide]
102 | 101 | COc1ccc(C(=O)Nc2ccc(N3CCN(c4ccc(C#N)cc4)CC3)cc2)cc1 [Example 57, N-[4-[4-(4-Cyanophenyl)piperazin-1-yl]phenyl]-4-methoxy-benzamide]
93 | 92 | COc1ccc(C(=O)Nc2ccc(N3CCN(c4ccc(OC)nc4)CC3)cc2)cc1 [Example 58, 4-Methoxy-N-[4-[4-(6-methoxypyridin-3-yl)piperazin-1-yl]phenyl]benzamide]
85 | 97 | COc1ccc(C(=O)Nc2cnc(N3CCN(c4ccccn4)CC3)nc2)cc1 [Example 59, 4-Methoxy-N-(2-(4-(pyridin-2-yl)piperazin-1-yl)pyrimidin-5-yl)benzamide]
85 | 96 | COc1ccc(C(=O)Nc2cnc(N3CCN(c4ccccn4)CC3)nc2)c(F)c1 [Example 60, 2-Fluoro-4-methoxy-N-(2-(4-(pyridin-2-yl)piperazin-1-yl)pyrimidin-5-yl)benzamide]
86 | 93 | O=C(Nc1cnc(N2CCN(c3ccccn3)CC2)nc1)c1ccccc1F [Example 61, 2-Fluoro-N-(2-(4-(pyridin-2-yl)piperazin-1-yl)pyrimidin-5-yl)benzamide]
89 | 97 | CN(C)c1ccc(C(=O)Nc2cnc(N3CCN(c4ccccn4)CC3)nc2)cc1 [Example 62, 4-(Dimethylamino)-N-(2-(4-(pyridin-2-yl)piperazin-1-yl)pyrimidin-5-yl)benzamide]
